# Results: US9181255B2, “Fused heteroaromatic pyrrolidinones as SYK inhibitors” (Takeda Pharmaceutical Company Limited, priority 2009, dated 2015)
# Target: SYK (Homo sapiens, UniProt P43405)
# Assay: SYK inhibition assay: SYK-mediated phosphorylation of FAM-labeled substrate (Caliper microfluidic)
# Type: biochemical
# Conditions: SYK kinase domain (residues 356-635); 5FAM-KKKKEEIYFFFG-NH2 substrate; ATP; RT 60 min; pIC50 = -log(IC50), IC50 molar
row,Structure (SMILES),SYK Inhibition (pIC50)
1,"N[C@H]1COCC[C@H]1Nc1nc(-c2cnn(C(F)F)c2)c2c(c1F)CNC2=O [Example 93, 6-((3R,4R)-3-Aminotetrahydro-2H-pyran-4-ylamino)-4-(1-(difluoromethyl)-1H-pyrazol-4-yl)-7-fluoro-1H-pyrrolo[3,4-c]pyridin-3(2H)-one]",8.0

# Same assay, conditions: read-out: SYK Inhibition (pIC50) (converted)
row,Structure (SMILES),IC50 [µM]
1,"N[C@H]1COCC[C@H]1Nc1nc(-c2ccsc2)c2c(c1F)CNC2=O [Example 103, 6-((3R,4R)-3-Aminotetrahydro-2H-pyran-4-ylamino)-7-fluoro-4-(thiophen-3-yl)-1H-pyrrolo[3,4-c]pyridin-3(2H)-one]",0.126
2,"Cc1cccc(Nc2nc(-c3cnn(C)c3)nc3c2C(=O)NC3)c1 [Example 7, 2-(1-Methyl-1H-pyrazol-4-yl)-4-(m-tolylamino)-6,7-dihydro-5H-pyrrolo[3,4-c]pyrimidin-5-one]",1
3,"Cc1cccc(Nc2nc(N[C@@H]3COC[C@@H]3N)cc3c2C(=O)NC3)c1 (relative stereo) [Example 58, 6-(cis-4-Aminotetrahydrofuran-3-ylamino)-4-(m-tolylamino)-1H-pyrrolo[3,4-c]pyridin-3(2H)-one]",1.58
4,"Cc1cccc(Nc2nc(N[C@@H]3CCCC[C@@H]3N(C)C)nc3c2C(=O)NC3)c1 [Example 37, 2-((1R,2S)-2-(Dimethylamino)cyclohexylamino)-4-(m-tolylamino)-6,7-dihydro-5H-pyrrolo[3,4-d]pyrimidin-5-one]",1
5,"CC(C)C[C@@H](Nc1nc(-c2ccsc2)c2c(c1F)CNC2=O)C(N)=O [Example 110, (R)-2-(7-Fluoro-3-oxo-4-(thiophen-3-yl)-2,3-dihydro-1H-pyrrolo[3,4-c]pyridin-6-ylamino)-4-methylpentanamide]",0.0501
6,"N[C@H]1CCCC[C@H]1Nc1nc(-c2cnn(C3CC3)c2)c2c(c1F)CNC2=O [Example 63, 6-((1R,2S)-2-Aminocyclohexylamino)-4-(1-cyclopropyl-1H-pyrazol-4-yl)-7-fluoro-1H-pyrrolo[3,4-c]pyridin-3(2H)-one]",0.00794
7,"Nc1ncc(-c2nc(N[C@@H]3CCCC[C@@H]3N)c(F)c3c2C(=O)NC3)s1 [Example 112, 6-((1R,2S)-2-Aminocyclohexylamino)-4-(2-aminothiazol-5-yl)-7-fluoro-1H-pyrrolo[3,4-c]pyridin-3(2H)-one]",0.002
8,"Cc1cccc(Nc2nc(N3CCCCC3CN)nc3c2C(=O)NC3)c1 (stereo not drawn) [Example 32, 2-(2-(Aminomethyl)piperidin-1-yl)-4-(m-tolylamino)-6,7-dihydro-5H-pyrrolo[3,4-c]pyrimidin-5-one]",3.98
9,Cn1ccc(-c2nc(N[C@@H]3CCCC[C@@H]3N)c(F)c3c2C(=O)NC3)n1 [Example 121],3.98
10,"Cc1cccc(Nc2nc(NCC(N)=O)nc3c2C(=O)NC3)c1 [Example 42, 2-(5-oxo-4-(m-tolylamino)-6,7-dihydro-5H-pyrrolo[3,4-d]pyrimidin-2-ylamino)acetamide]",0.158
11,"Cc1cccc(Nc2nc(N[C@@H]3CCCC[C@@H]3O)nc3c2C(=O)NC3)c1 (relative stereo) [Example 11, Cis-2-(2-Hydroxycyclohexylamino)-4-(m-tolylamino)-6,7-dihydro-5H-pyrrolo[3,4-d]pyrimidin-5-one]",1.26
12,"Cc1c(-c2nc(N[C@@H]3CCCC[C@@H]3N)nc3c2C(=O)NC3)cnn1C [Example 46, 2-((1R,2S)-2-Aminocyclohexylamino)-4-(1,5-dimethyl-1H-pyrazol-4-yl)-6,7-dihydro-5H-pyrrolo[3,4-d]pyrimidin-5-one]",1.58
13,"N[C@H]1CCCC[C@H]1Nc1nc2c(c(Nc3cccc(Cl)c3)n1)C(=O)NC2 [Example 3, 2-((1R,2S)-2-Aminocyclohexylamino)-4-(3-chlorophenylamino)-6,7-dihydro-5H-pyrrolo[3,4-d]pyrimidin-5-one]",0.0251
14,"Cc1cccc(Nc2nc(NCC(C)(C)N)nc3c2C(=O)NC3)c1 [Example 41, 2-(2-Amino-2-methylpropylamino)-4-(m-tolylamino)-6,7-dihydro-5H-pyrrolo[3,4-c]pyrimidin-5-one]",1.26
